Experimental data reported in patent US8785457B2 (Cellzome Limited, priority 2009, dated 2014).
Like-named read-outs stand apart in the source and are kept apart here.

Key:
Salmonella strain TA98 = system: Salmonella strain TA98
Description: (§1) Certain compounds of the invention were tested in a miniaturized screening version of the Ames test that requires a small amount of compound compared with the regulatory test. The Ames fluctuation assay is performed in 384-well plates using two Salmonella strains, TA98 and TA100. TA98 detects frameshifts and TA100 detects base substitutions leading to missense mutations. Whereas the original Ames test is carried out by plating bacteria onto selective agar plates, the Ames fluctuation assay is carried out in liquid culture using 384-well plates. The bacterial plates are incubated with the test compounds for 96 hours, after which bacterial growth is measured spectrophotometrically using a pH indicator that changes color in response to the acidification of the media due to bacterial growth.
(§2) Metabolic activation is achieved by using rat liver S9 fraction (0.2 mg/ml). To prevent false negatives due to bacteriocidal or bacteriostatic effects, a bacterial cytotoxicity assay is conducted in parallel with the Ames fluctuation assay. Compounds are typically tested in both bacterial strains with and without S9, at four concentrations (5, 10, 50 and 100 μM) with n=48 wells. A bacterial cytotoxicity test is conducted in parallel at 8 concentrations (with 100 μM as the highest concentration) and n=3 wells. Four reference compounds (quercetin, streptozotocin, aminoanthracene and mitomycin C) are included in all experiments.
(§3) The significance of the positive counts between the treatment (in the presence of compound) and the control (in the absence of test compound) are calculated using the one-tailed Fisher's exact test—the significance levels are reported as follows: • Weak positive, if 0.01≦p≦0.05, denoted as “+” • Strong positive, if 0.001≦p≦0.01, denoted as “++” • Very strong positive, if p<0.001, denoted as “+++” • Hyphens (−) indicate negative results

Salmonella strain TA100 = system: Salmonella strain TA100
Description: as §1, §2, §3

[1] = system: Salmonella strains, TA98 and TA100; settings: with rat liver S9 fraction
Description: The Ames Salmonella/microsome mutagenicity assay (Salmonella test; Ames test) is a standard, short-term bacterial reverse mutation assay specifically designed to detect a wide range of chemical substances that can produce genetic damage leading to gene mutations. The test employs several histidine dependent Salmonella strains each carrying different mutations in various genes of the histidine operon (Mortelmans and Zeiger 2000, Mutation Research 455, 29-60). […]
Certain compounds of the invention were tested in a miniaturized screening version of the Ames test that requires a small amount of compound compared with the regulatory test. […] The bacterial plates are incubated with the test compounds for 96 hours, after which bacterial growth is measured spectrophotometrically using a pH indicator that changes color in response to the acidification of the media due to bacterial growth. […]
as §3

| Compound | Ames fluctuation assay TA98 +S9 (Salmonella strain TA98; TA98, +S9, 5 μM) | Ames fluctuation assay TA98 +S9 (Salmonella strain TA98; TA98, +S9, 10 μM) | Ames fluctuation assay TA98 +S9 (Salmonella strain TA98; TA98, +S9, 50 μM) | Ames fluctuation assay TA98 +S9 (Salmonella strain TA98; TA98, +S9, 100 μM) | Ames fluctuation assay TA100 +S9 (Salmonella strain TA100; TA100, +S9, 5 μM) | Ames fluctuation assay TA100 +S9 (Salmonella strain TA100; TA100, +S9, 10 μM) | Ames fluctuation assay TA100 +S9 (Salmonella strain TA100; TA100, +S9, 50 μM) | Ames fluctuation assay TA100 +S9 (Salmonella strain TA100; TA100, +S9, 100 μM) | Ames assay result [1] |
| --- | --- | --- | --- | --- | --- | --- | --- | --- | --- |
| CCOC(=O)N1Cc2nc(-c3ccc(N)cc3)nc(N3CCOC[C@@H]3C)c2C1 [Example 137] | +++ +++ +++ +++ (Very strong positive, if p<0.001, denoted as “+++”) | +++ +++ +++ +++ (Very strong positive, if p<0.001, denoted as “+++”) | +++ +++ +++ +++ (Very strong positive, if p<0.001, denoted as “+++”) | +++ +++ +++ +++ (Very strong positive, if p<0.001, denoted as “+++”) | − | − | ++ (Strong positive, if 0.001≦p≦0.01, denoted as “++”) | − |  |
| CCOC(=O)N1Cc2nc(-c3ccc(N)c(F)c3)nc(N3CCOC[C@@H]3C)c2C1 [Intermediate 19] | +++ +++ +++ +++ (Very strong positive, if p<0.001, denoted as “+++”) | +++ +++ +++ +++ (Very strong positive, if p<0.001, denoted as “+++”) | +++ +++ +++ +++ (Very strong positive, if p<0.001, denoted as “+++”) | +++ +++ +++ +++ (Very strong positive, if p<0.001, denoted as “+++”) | − | +++ (Very strong positive, if p<0.001, denoted as “+++”) | +++ (Very strong positive, if p<0.001, denoted as “+++”) | +++ (Very strong positive, if p<0.001, denoted as “+++”) |  |
| CCOC(=O)N1Cc2nc(-c3ccc(N)cc3)nc(N3CCOC[C@@H]3C)c2C1 [Metabolite Example 137, (S)-ethyl 2-(4-aminophenyl)-4-(3-methylmorpholino)-5H-pyrrolo[3,4-d]pyrimidine-6(7H)-carboxylate] |  |  |  |  |  |  |  |  | Ames positive |
